BindingDB's records for doi:10.1016/j.chembiol.2015.08.013 (Aston University, 2015)

Columns and labels:
Assay in all cases: TG Activity Assays
[1] = target: T1, Protein-glutamine gamma-glutamyltransferase K (Homo sapiens, UniProt P22735)
T1 sequence (P22735 whole entry): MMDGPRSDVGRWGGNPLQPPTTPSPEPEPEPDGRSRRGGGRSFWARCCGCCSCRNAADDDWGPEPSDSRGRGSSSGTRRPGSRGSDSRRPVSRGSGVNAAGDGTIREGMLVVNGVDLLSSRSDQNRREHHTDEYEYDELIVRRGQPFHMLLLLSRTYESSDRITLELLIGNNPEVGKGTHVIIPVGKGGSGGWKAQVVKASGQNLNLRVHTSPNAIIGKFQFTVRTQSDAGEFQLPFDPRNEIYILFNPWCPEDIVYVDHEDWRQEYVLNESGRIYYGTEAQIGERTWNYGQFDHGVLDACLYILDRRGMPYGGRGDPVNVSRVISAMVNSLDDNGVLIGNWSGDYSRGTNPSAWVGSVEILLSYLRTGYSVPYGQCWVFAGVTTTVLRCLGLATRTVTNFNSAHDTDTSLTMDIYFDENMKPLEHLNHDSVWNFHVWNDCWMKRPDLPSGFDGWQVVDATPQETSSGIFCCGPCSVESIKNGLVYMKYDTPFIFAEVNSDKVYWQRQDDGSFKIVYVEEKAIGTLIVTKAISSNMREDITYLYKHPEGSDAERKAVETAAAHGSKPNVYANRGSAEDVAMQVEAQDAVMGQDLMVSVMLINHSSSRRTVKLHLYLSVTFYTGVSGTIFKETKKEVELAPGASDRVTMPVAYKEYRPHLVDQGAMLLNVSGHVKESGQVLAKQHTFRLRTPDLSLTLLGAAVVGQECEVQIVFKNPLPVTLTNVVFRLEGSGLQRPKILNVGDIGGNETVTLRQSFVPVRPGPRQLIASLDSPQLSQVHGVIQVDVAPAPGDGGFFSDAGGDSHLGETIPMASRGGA
Description: (§1) The incorporated biotinylated peptides were measured using horseradish peroxidase-conjugated streptavidin and then measured using o-phenylenediamine dihydrochloride substrates. The absorbance was measured at 490 nm using a microplat

[2] = target: T2, Protein-glutamine gamma-glutamyltransferase 6 (Homo sapiens, UniProt O95932)
T2 sequence (O95932 whole entry): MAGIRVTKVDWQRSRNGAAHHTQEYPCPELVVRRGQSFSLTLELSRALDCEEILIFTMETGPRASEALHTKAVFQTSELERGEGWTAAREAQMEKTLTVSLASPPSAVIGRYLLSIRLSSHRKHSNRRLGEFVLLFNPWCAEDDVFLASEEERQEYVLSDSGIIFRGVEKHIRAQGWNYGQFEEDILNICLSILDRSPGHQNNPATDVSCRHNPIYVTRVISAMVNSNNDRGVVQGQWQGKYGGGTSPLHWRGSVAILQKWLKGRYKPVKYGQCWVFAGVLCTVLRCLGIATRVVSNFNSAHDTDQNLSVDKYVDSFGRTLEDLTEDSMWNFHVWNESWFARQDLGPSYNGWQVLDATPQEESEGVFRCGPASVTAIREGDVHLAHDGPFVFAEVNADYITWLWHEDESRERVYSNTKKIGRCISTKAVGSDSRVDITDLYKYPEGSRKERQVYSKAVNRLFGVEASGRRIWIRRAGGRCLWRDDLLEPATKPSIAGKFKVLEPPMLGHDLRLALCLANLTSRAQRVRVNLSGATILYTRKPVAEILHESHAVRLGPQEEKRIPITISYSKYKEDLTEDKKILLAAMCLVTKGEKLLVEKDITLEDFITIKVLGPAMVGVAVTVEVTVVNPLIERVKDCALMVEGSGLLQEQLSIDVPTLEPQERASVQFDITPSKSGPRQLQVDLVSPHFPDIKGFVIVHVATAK
Description: as §1

[3] = target: T3, Protein-glutamine gamma-glutamyltransferase E (Homo sapiens, UniProt Q08188)
T3 sequence (Q08188 whole entry): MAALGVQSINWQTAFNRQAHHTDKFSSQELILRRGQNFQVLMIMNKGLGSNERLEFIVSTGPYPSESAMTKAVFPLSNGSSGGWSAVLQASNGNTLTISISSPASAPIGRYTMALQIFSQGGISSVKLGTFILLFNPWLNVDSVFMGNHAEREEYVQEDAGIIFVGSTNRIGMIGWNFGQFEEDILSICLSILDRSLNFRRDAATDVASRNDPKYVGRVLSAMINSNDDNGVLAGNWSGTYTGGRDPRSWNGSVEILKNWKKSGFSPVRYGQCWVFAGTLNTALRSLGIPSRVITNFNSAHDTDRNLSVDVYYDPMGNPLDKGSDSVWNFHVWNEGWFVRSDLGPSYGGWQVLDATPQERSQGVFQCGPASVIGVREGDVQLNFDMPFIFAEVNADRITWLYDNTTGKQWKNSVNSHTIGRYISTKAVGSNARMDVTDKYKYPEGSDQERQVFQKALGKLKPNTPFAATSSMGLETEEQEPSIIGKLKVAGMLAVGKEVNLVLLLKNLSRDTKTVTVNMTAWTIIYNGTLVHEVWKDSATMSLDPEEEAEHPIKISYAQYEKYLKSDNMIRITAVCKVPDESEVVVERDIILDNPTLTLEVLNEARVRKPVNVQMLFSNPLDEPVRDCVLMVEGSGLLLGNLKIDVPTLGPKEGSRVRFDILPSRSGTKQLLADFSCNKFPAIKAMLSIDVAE
Description: as §1

[4] = target: T4, Protein-glutamine gamma-glutamyltransferase 2 (Homo sapiens, UniProt P21980)
T4 sequence (P21980 whole entry): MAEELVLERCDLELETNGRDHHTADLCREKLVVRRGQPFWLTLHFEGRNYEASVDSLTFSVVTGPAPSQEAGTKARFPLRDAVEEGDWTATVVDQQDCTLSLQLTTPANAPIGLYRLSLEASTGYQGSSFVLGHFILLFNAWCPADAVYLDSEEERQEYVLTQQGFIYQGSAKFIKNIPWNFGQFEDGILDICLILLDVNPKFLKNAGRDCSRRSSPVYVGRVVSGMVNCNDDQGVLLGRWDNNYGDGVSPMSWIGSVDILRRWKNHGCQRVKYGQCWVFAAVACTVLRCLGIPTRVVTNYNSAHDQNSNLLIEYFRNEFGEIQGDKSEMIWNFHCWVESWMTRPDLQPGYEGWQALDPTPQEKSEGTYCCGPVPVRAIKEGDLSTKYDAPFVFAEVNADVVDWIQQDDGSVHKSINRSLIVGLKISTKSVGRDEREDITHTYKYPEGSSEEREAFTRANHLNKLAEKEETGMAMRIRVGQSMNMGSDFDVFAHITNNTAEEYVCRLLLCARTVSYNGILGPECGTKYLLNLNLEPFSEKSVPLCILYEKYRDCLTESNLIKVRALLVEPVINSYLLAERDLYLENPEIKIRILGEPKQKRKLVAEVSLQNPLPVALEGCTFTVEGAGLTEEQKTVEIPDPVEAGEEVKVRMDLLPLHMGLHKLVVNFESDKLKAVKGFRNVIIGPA
Description: as §1

Row | IC50 [1] [µM] | IC50 [2] [µM] | IC50 [3] [µM] | IC50 [4] [µM] | Structure (SMILES)
1 | > 100 | > 10 | > 100 | – | C=CC(=O)NCC(=O)N1CCN(C(=O)OCC23CC4CC(CC(C4)C2)C3)CC1 [1-Adamantylmethyl 4-[2-(prop-2-enoylamino)acetyl]piperazine-1-carboxylate (3f)]
2 | 2.2 | 2 | 11 | 0.125 | C=CC(=O)NCC(=O)N1CCN(C(=O)C23CC4CC(CC(C4)C2)C3)CC1 [N-[2-[4-(adamantane-1-carbonyl)piperazin-1-yl]-2-oxo-ethyl]prop-2-enamide (3e)]
3 | > 100 | > 10 | > 100 | 0.775 | C[S+](C)CC(=O)NCC(=O)N1CCN(C(=O)OCC23CC4CC(CC(C4)C2)C3)CC1 [[2-[[2-[4-(1-Adamantylmethoxycarbonyl)piperazin-1-yl]-2-oxo-ethyl]amino]-2-oxoethyl]-dimethyl-sulfonium bromide (1f)]
4 | > 100 | > 10 | > 100 | 0.889 | C[S+](C)CC(=O)NCC(=O)N1CCN(C(=O)C23CC4CC(CC(C4)C2)C3)CC1 [[2-[[2-[4-(Adamantane-1-carbonyl)piperazin-1-yl]-2-oxo-ethyl]amino]-2-oxo-ethyl]-dimethyl-sulfonium bromide (1e)]
5 | > 100 | > 10 | > 100 | – | CN(C)c1cccc2c(S(=O)(=O)N3CCN(C(=O)CNC(=O)C[S+](C)C)CC3)cccc12 [[2-[[2-[4-[[5-(Dimethylamino)-1-naphthyl]sulfonyl]piperazin-1-yl]-2-oxo-ethyl]amino]-2-oxo-ethyl]-dimethyl-sulfonium bromide (1h)]
